Source: the NIST ThermoML archive (doi:10.1021/je100577v)

What was measured:
[1] = Liquid; for mass density: Vibrating tube method; for vapor or sublimation pressure: Ebulliometric method (Recirculating still)
[2] = xn = mol fraction of the nth substance listed; conditions: Liquid, Vibrating tube method, x2 = 0

CC12CCC(CC1)C(C)(C)O2 [1,3,3-trimethyl-2-oxabicyclo[2.2.2]octane]
mass density [kg/m3], [1]
Conditions | 20000 kPa | 25000 kPa | 30000 kPa | 35000 kPa | 40000 kPa
283.15 K | 945.9 | 949.1 | 952 | 954.9 | 957.6
298.15 K | 934.1 | 937.4 | 940.5 | 943.4 | 946.4
313.15 K | 922.3 | 925.8 | 929.1 | 932.4 | 935.5
328.15 K | 910.6 | 914.3 | 917.9 | 921.3 | 924.7

[1]
Conditions | vapor or sublimation pressure [kPa]
326.65 K | 1.33
341.55 K | 2.67
357.25 K | 5.33
363.45 K | 6.67
381.45 K | 13.33
392.75 K | 20
401.75 K | 26.66
408.65 K | 33.33
414.65 K | 40
419.95 K | 46.66
424.65 K | 53.33
428.85 K | 60
432.75 K | 66.66
436.35 K | 73.33
439.75 K | 79.99
442.85 K | 86.66
445.85 K | 93.33
448.65 K | 99.61
449.15 K | 101.33

CCCO [propan-1-ol]
mass density [kg/m3], [1]
Conditions | 20000 kPa | 25000 kPa | 30000 kPa | 35000 kPa | 40000 kPa
283.15 K | 825.1 | 828.4 | 831.5 | 834.5 | 837.4
298.15 K | 814.2 | 817.6 | 820.9 | 824 | 827.1
313.15 K | 803.1 | 806.9 | 810.4 | 813.7 | 817
328.15 K | 792 | 795.8 | 799.6 | 803.1 | 806.6

[1]
Conditions | vapor or sublimation pressure [kPa]
319.65 K | 10
327.25 K | 15
332.95 K | 20
337.45 K | 25
341.25 K | 30
343.55 K | 33.33
344.65 K | 35
347.65 K | 40
350.35 K | 45
352.75 K | 50
355.05 K | 55
357.05 K | 60
359.05 K | 65
359.65 K | 66.66
360.85 K | 70
362.55 K | 75
364.15 K | 80
365.65 K | 85
367.15 K | 90
370.05 K | 101.33

CCCO [propan-1-ol] + CC12CCC(CC1)C(C)(C)O2
mass density [kg/m3], [2]
Conditions | 20000 kPa | 25000 kPa | 30000 kPa | 35000 kPa | 40000 kPa
283.15 K | 825.1 | 828.4 | 831.5 | 834.5 | 837.4
298.15 K | 814.2 | 817.6 | 820.9 | 824 | 827.1
313.15 K | 803.1 | 806.9 | 810.4 | 813.7 | 817
328.15 K | 792 | 795.8 | 799.6 | 803.1 | 806.6
